Here are results for one compound from paper PMC6934184, “Selective DNA-PKcs inhibition extends the therapeutic index of localized radiotherapy and chemotherapy” (The Journal of Clinical Investigation, 2019).

This experiment concerns the target T1, HIPK4 (Homo sapiens, UniProt Q8NE63).
T1 construct: purchased Thermo Fisher Scientific (Life Technologies) SelectScreen
The experiment can be described thus: SelectScreen Z'LYTE. Type of experiment: biochemical. The gist of the method:
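Compound tested in SelectScreen activity assays, Z'LYTE for CSF1R, CDK1/cyclin B and MAP2K6 and Adapta for CAMK1. ATP for CAMK1 was listed as 10, and Km app was used for CSF1R. Results are expressed in percent.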

SMILES strings stand for the structures.

T1 sequence (Q8NE63 whole entry): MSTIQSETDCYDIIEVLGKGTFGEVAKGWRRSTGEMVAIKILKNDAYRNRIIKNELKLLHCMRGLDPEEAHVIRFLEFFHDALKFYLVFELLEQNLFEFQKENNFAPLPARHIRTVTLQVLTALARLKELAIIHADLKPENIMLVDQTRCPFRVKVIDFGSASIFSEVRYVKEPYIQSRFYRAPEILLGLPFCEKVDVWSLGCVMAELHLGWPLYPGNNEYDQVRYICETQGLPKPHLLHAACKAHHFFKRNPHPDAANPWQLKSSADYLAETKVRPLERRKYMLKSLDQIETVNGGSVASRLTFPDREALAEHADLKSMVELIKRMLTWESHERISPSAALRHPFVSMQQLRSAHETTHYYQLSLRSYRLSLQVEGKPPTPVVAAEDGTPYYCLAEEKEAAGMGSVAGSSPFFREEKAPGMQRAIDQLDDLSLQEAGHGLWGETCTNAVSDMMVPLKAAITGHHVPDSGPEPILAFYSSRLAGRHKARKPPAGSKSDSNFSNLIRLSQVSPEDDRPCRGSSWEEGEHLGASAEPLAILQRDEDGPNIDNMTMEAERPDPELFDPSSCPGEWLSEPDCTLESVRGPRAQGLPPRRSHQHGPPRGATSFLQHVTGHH

In general, inhibition refers to the percentage by which the read-out fell short of the control. `CN(C(=O)CN1CCOCC1)c1ccc2sc3c(-c4cccc5c(=O)cc(N6CC7CCC(C6)O7)oc45)cccc3c2c1` [NU5455] returned an inhibition at 1 µM of 0.9%.
